# Source: a melting point compilation (Tetko et al.; mined from patent text by program, amines drawn as free bases though some values may be those of a salt)
# Residues, ends and D or L forms follow the SMILES beside them. *: point of attachment. NHPhenethyl = c1ccc(CCN*)cc1; Cbz = O=C(OCc1ccccc1)*
row,SMILES,melting point [°C]
1,COc1cc2c(cc1-c1cccnc1)-c1c(-c3cccs3)c3c(n1CC2)C(=O)N(C(C)C)CCN(C(C)=O)C3,225 to 226
2,CCOC(=O)CNc1c(C(C)C)cc(C(O)(C(F)(F)F)C(F)(F)F)cc1C(C)C,72 to 73
3,CC(C)OC(=O)c1cc(-n2c(=O)[nH]c(C(F)(F)F)c(F)c2=O)c(F)cc1Cl,102 to 106
4,CC(=O)On1c(C)csc1=S,100 to 101
5,NC(=O)c1cc(-c2ccnc(Nc3cccc(OC(F)(F)C(F)F)c3)n2)ccn1,224 to 225
6,O=C(CSc1cccs1)C12CC3CC(CC(C3)C1)C2,69 to 72
7,O=C1c2ccccc2C(=O)N1CCNOCc1ccccc1,89 to 91
8,Nc1nc(Nc2ccccc2)c2[nH]cnc2n1,126
9,[N-]=[N+]=NCCc1ccc(C(N)=O)s1,104 to 105
10,NC(=O)CC(NC(=O)C(CO)NC(=O)CNC(=O)CNC(=O)OCc1ccccc1)C(=O)NC(Cc1ccccc1)C(=O)NCCc1ccccc1 (centres undefined) (Cbz-GGSNF-NHPhenethyl; configuration not given here),225 to 229
11,CN1C(=O)C(NC(=O)CCc2ccccc2)N=C(N(C)C2CCCCC2)c2ccccc21 (centres undefined),167 to 168
12,O=C(O)CCCOn1nnc2ccc(Cn3ccnc3)cc21,170
13,C[C@H](NC(=O)OC(C)(C)C)C(=O)OCC(C)(C)Nc1cccc2c1C(=O)c1ccccc1C2=O,120
14,CCCc1nc2c(N)nc3cc(OCc4cccc([N+](=O)[O-])c4)ccc3c2n1CC(C)C,175 to 176
15,CC(=O)OCC1OC(n2c3ncccc3c3c4c(n5cncc5c32)C(=O)N(C)C4=O)C(OC(C)=O)C(OC(C)=O)C1OC(C)=O (centres undefined),204
16,COc1cccc2c1CCc1ccn(CCNC(C)=O)c1-2,133
17,CC(C)Nc1n[nH]c(=O)n1N,150 to 152
18,Cc1cc(C(=O)O)ccc1C1=CCCCC1C(C)(C)C (centres undefined),152
19,CCOC(=O)c1cn(N)c2cc3c(cc2c1=O)OCO3,251 to 253
20,Oc1nc2ccc3c(Br)cccc3c2nc1O,> 300
21,Cc1ccc(C(=O)Nc2nc(-c3ccccc3)c(-c3nc4ccccc4c(=O)n3-c3ccc(Cl)cc3)s2)cc1,> 275
22,CCCCC(=O)Nc1nc2ccc(Cl)cc2nc1N,224 to 228
23,N#CC1c2ccccc2CCc2ccccc21,89 to 90
24,CCCCCCCCCCNC(=O)OC1CCN(C(=O)OCCCCCCNC(=O)Oc2ccc(Oc3ccccc3)cc2)CC1,87 to 91
25,CCCn1nnn(-c2cc(OC3CCCO3)c(Cl)cc2Cl)c1=O (centres undefined),89 to 90

row,SMILES,melting point [°C]
1,COc1cc(-c2cc3ccccc3[nH]2)cc(OC)c1O,230
2,O=C(Nc1ccc(OC(F)(F)F)cc1)c1c(O)c2ccccc2oc1=O,194 to 195
3,COc1cccc(-c2ncc3n2C=CN(C)C3)c1,211 to 214
4,CC(C)(C)OC(=O)NCC1C2CN(C(=O)C(O)(c3ccccc3)C3CCCC3)CC12 (centres undefined),76 to 79.6
5,COc1cccc(CC(=O)Nc2ccc3sc(C)nc3c2Cl)c1,147 to 148
6,CCCC(O)C1(C)OC(C)=C(O)C1=O (centres undefined),103 to 104
7,CC(C(O)c1ccc2nc(N)sc2c1)N1CCC(Cc2ccccc2)CC1 (centres undefined),197 to 200
8,O=C(N[C@H]1CC[C@@H](C(=O)Oc2ccc3c(c2)CCC3)CC1)OCc1ccccc1,68 to 69
9,Cc1cc2c(cc1O)C(C)(C)CC1(CC(C)(C)c3cc(OCCCC(=O)O)c(C)cc3O1)O2 (centres undefined),173 to 174
10,O=C(Nc1cccnn1)N1CCN(c2ccnc(-c3ccc(F)cc3F)n2)CC1,200 to 201
11,Nc1cc(N)c(SCCO)cc1SCCO,144
12,O=C(c1c(-c2cc(Cl)cc(Cl)c2)[nH]c2c(Cl)cc(Cl)cc12)C(F)(F)F,214 to 216
13,NNc1ccc(Cl)cc1F,57 to 63
14,O=C(O)c1ccc(Oc2nccs2)c(F)c1,133 to 134
15,COc1cc(CNC(=S)NC(COC(=O)C(C)(C)C)Cc2ccc(C(C)(C)C)cc2)ccc1O (centres undefined),117 to 119
16,O=C(O)c1ccc(OC(F)F)c(OC2CCCC2)c1,126 to 128
17,CCCCOc1ccc(S(C)(=O)=O)cc1C(N)=O,146 to 150
18,CC(C)(C)OC(=O)NCCNC(=O)c1ncccc1OCc1ccccc1,145 to 147
19,CC(C#Cc1ccc(C=Cc2ccccc2)o1)N(O)C(N)=O (centres undefined),168
20,CC(C)Oc1cc(-n2c(=O)cc(C(F)(F)F)n(C)c2=O)c(F)cc1Br,79
21,Cn1ncc(/C=C/C(=O)Nc2ccc(CS(C)=O)cc2)c1-c1ccc(F)cc1 (centres undefined),240 to 241
22,COc1ccc2c(c1)cc(C1(O)C=CC(=O)C=C1)n2S(=O)(=O)c1ccccc1,126 to 128
23,"CCOc1cc2c(cc1OCC)C1CN(C)CCC1N=C2c1ccc(C#N)cc1 (single isomer, unassigned; (-))",141
24,Cc1cn(CCC(=O)N(C)C)nc1-c1ccccc1,60 to 63
25,COCc1nc(Cl)c(Oc2cc(OC)ccc2Cl)c(Cl)n1,105

row,SMILES,melting point [°C]
1,Cc1cc(SC(C)C)c(NC(=O)CCCCCCSc2nc3ccccc3s2)c(SC(C)C)n1,74 to 76
2,CC(=O)N(c1nc(N)no1)c1c(Cl)cccc1Cl,164 to 165
3,O=C(O)c1cccc(-c2cccc3oc(Cc4cccc(C(F)(F)F)c4)cc23)c1,138 to 139
4,COc1cc2c(cc1OC)C(Oc1ccc(Cl)cc1)CN(C)C2 (centres undefined),112 to 115
5,CCCCc1ccc(NC(=O)c2ccc(N)cc2)cc1,138
6,OCC1CCC(c2ccccc2)CC1 (centres undefined),47.3 to 48.5
7,CCOc1c(Cl)cc([N+](=O)[O-])c(OCC)c1[N+](=O)[O-],78
8,Cc1c(NC(=O)NC(C)(C)C)c(C)c2c(c1C(C)O)OCC2c1ccc(C(C)C)cc1 (centres undefined),212 to 214
9,O=C1NC(=O)C(c2ccco2)N1 (centres undefined),145 to 146
10,CC(C)(C)c1cc(CCNCc2cccc(NC(=N)c3cccs3)c2)cc(C(C)(C)C)c1O,116 to 117
11,CC(CNc1c(C(=O)O)cccc1[N+](=O)[O-])NCc1ccccc1 (centres undefined),227
12,C[C@@H]1CN(c2ccc(C(F)(F)F)nc2)C[C@H](C)N1CC(=O)N1CC=C(c2ccc3c(c2)OCCO3)CC1,200 to 201
13,C=CCONC(=O)c1nc(-c2ccc(F)cc2)cc(N)c1Cl,182 to 185
14,CS(=O)c1nnc(-c2ccc3ncn(-c4ccc(OC(F)(F)F)cc4)c3c2)o1 (centres undefined),152 to 153
15,COc1ccc(CS(=O)(=O)c2cc3cc(Br)ccc3oc2=O)cc1,231 to 232
16,Oc1nsc(Cc2ccccc2)n1,50
17,CCOC(=O)C(=NO)C(C)C,54 to 55
18,CCn1cc(Cl)nc(SCC(=O)Nc2ccccc2)c1=O,156 to 158
19,CCOc1ccc2c(c1)n(C1CCCCC1)c(=O)n2Cc1ccc(NC(=O)N(CC)CC)cc1OC,158
20,Nc1ccc(S(=O)(=O)Nc2ccc(S(N)(=O)=O)cc2)cc1Cl,197 to 198
21,COc1cccc2c1nc(C(F)F)n2-c1nc(Nc2ccc(N(C)C)nc2)nc(N2CCOCC2)n1,136 to 137
22,O=C(NCCCN1CCCCC1)c1ccc(-c2ccc3nnn(Cc4ccc5ncccc5c4)c3n2)cc1F,135 to 137
23,C[C@@H]1Cc2ccsc2[C@H](C)N1CCNC(=O)c1ccc(C#N)cc1 (relative stereo),122 to 124
24,C=CCOC(=O)C1=C2[C@@H](OC)CCC[C@@H]2[C@@H]2[C@@H]([C@H](O)C(F)(F)F)C(=O)N12,78 to 85
25,O=S1(=O)C=Cc2cc(Br)ccc2O1,140 to 142

row,SMILES,melting point [°C]
1,CCOC(=O)c1nnc(N(C)C)n1C,52 to 53
2,COC(=O)c1cc(OCc2ccccc2)nn1-c1ccccc1,53 to 54
3,COc1cc(OC)c(-c2cn[nH]c2)cc1C=CC(=O)c1ccc(C(=O)O)cc1,> 250
4,COc1ccc(C2=NN(Cc3ccccc3C(F)(F)F)C(=O)[C@H]3CCCC[C@@H]23)cc1OC (relative stereo),87 to 88
5,Cc1cn(Cc2ccc(F)cc2)c(C)c1C(=O)CC(=O)C(=O)O,184 to 185
6,O=C(Cn1cc(Cc2ccccc2)cc(NC(=O)OCc2ccccc2)c1=O)NC(Cc1ccccc1)C(=O)C(F)(F)F (centres undefined),127 to 130
7,O=C(O)CCCc1cc2nc(Cl)ccc2n1S(=O)(=O)c1ccc2oncc2c1,226
8,CN1C(=O)C(=O)c2cc(S(=O)(=O)N3CCC[C@H]3COc3ccccc3)ccc21,160 to 161
9,O=S1(=O)Cc2cc(Cl)c(Cl)cc2C(c2ccc(F)cc2)=NN1,196 to 200
10,O=C(c1ccc(Cl)c(Cl)c1)N1CCC(Br)C(c2ccccc2)=N1 (centres undefined),168 to 169
11,COc1c(N2C[C@@H](N)[C@@H](C3CC3)C2)c(F)cc2c(=O)c(C(=O)O)cn([C@@H]3C[C@@H]3F)c12,211 to 214
12,FC(F)(F)c1ccc2nc(N3CCN(c4ccncc4C(F)(F)F)CC3)[nH]c2c1,220 to 224
13,CCOC(=O)Nc1ccc(NC(=O)OCc2ccccc2)c(O)c1,190
14,CN(C)S(=O)(=O)c1cnc(NC(=O)[C@H](CC2CCCC2)c2ccc(S(C)(=O)=O)c(Cl)c2)cn1,100
15,CCOC(=O)C1=C(C)NC(C=NN)=C(C(=O)OCC)C1c1ccccc1Cl (centres undefined),107 to 110
16,COc1cc(C=C2OC(C)=CC2=O)cc(OC)c1O,188 to 190
17,COC(=O)c1ccc(F)c2c1CC(N(CCCc1c[nH]c3ccc(F)cc13)C1CCC1)CO2 (centres undefined),110
18,Cn1c(C#N)c(F)n(-c2ccc(Cl)cc2)c1=O,105
19,CC(C)N=C(NC#N)NCCN1CCC(C(=O)c2ccc(F)cc2)CC1,158 to 160
20,c1coc(-c2ccc3c(n2)[nH]c2ccccc23)c1,208 to 210
21,O=c1nc(-c2ccccc2F)c2ccccc2[nH]1,281 to 285
22,CCCNc1cn(-c2cccnc2)nc1C,65 to 67
23,COc1ccc2c(c1)sc1nc(N)nc(=Nc3ccc(O)cc3)n12,> 255
24,N#CC=Cc1ccc(N)cc1,109 to 110
